Legend:
[1] = tested on: fibrinogen binding to platelets; test: Fibrinogen binding assay (125I-fibrinogen binding to ADP-activated human platelets); details: ADP 10 μM, 125I-fibrinogen 0.3 μM, 40 min at 37° C.
Procedure: Fibrinogen binding was performed essentially as described by Plow et al., Blood 70, 110-115 (1987). Briefly, blood from humans who had not been given any antiplatelet drugs in the previous two weeks was collected into 1/10th volume of CCD buffer (100 mM sodium citrates, 136 mM glucose, pH 6.5). The blood was centrifuged for 3 min at 1000×g and platelet rich plasma was transferred to a plastic tube with a plastic pipet and placed on ice. After 15 minutes, 1/2 volume of ice cold CCD buffer was added and the sample was centrifuged at 900×g for 10 min at 2° C. The supernatant was decanted and the platelet pellet was gently resuspended in 1/2 the original volume of ice cold modified Tyrode's buffer (137 mM NaCl, 2.6 mM KCl, 12 mM NaHCO3, 5.5 mM glucose, 15 mM HEPES, 0.5% BSA, pH 7.4). After incubating for 30 minutes at 37° C., the platelet count was adjusted to 4×10^8 platelets/ml with modified Tyrode's buffer. To test samples (final concentration=1×10^8 platelets/ml) were added in sequence: ADP (10 μM), CaCl2 (2 mM), test compound, and ^125 I-fibrinogen (0.3 μM) to the aforesaid final concentrations in a volume of 200 μ1. […] Specific binding was determined in each test by subtracting from the total binding the amount of ^125 I-fibrinogen bound in the presence of a 60-fold excess of unlabeled fibrinogen. […]

[2] = tested on: platelet aggregation in dog PRP; test: In-vitro platelet aggregation in PRP (ADP-induced, dog platelet-rich plasma); format: cell-based; details: Canis lupus familiaris, ADP 50 μm final concentration, 37° C., 1 minute preincubation
Procedure: Healthy male or female dogs were fasted for 8 hours prior to drawing blood; then 30 ml whole blood was collected using a butterfly needle and 30 cc plastic syringe with 3 ml of 0.129 M buffered sodium citrate (3.8%). The syringe was rotated carefully as blood was drawn to mix the citrate. Platelet-rich plasma (PRP) was prepared by centrifugation at 975×g for 3.17 minutes at room temperature, allowing the centrifuge to coast to a stop without braking. The PRP was removed from the blood with a plastic pipette and placed in a plastic capped, 50 ml Corning conical sterile centrifuge tube which was held at room temperature. Platelet poor plasma (PPP) was prepared by centrifuging the remaining blood at 2000×g for 15 minutes at room temperature allowing the centrifuge to coast to a stop without braking. The PRP was adjusted with PPP to a count of 2-3×10^8 platelets per ml. 400 μl of the PRP preparation and 50 μl of the compound to be tested or saline were preincubated for 1 minute at 37° C. in a BioData aggregometer (BioData, Horsham, Pa.). 50 μl of adenosine 5'-diphosphate (ADP) (50 μm final concentration) was added to the cuvettes and the aggregation was monitored for 1 minute. All compounds are tested in duplicate. Results are calculated as follows:
Percent of control=[(maximal OD minus initial OD of compound) divided by (maximal OD minus initial OD of control saline)]×100. The % inhibition=100-(percent of control).

Row | SMILES | IC50 [1] | IC50 [2]
1 | COC(=O)[C@H](Cc1ccccc1)NC(=O)[C@H](CC(=O)O)NC(=O)CCC(=O)Nc1ccc(C(=N)N)cc1 [Example 1, N-[N-[4-[[4-(aminoiminomethyl)phenyl]-amino]-1,4-dioxobutyl]-L-alpha-aspartyl]-L-phenylalanine, 1-methyl ester] | 48 nM | 90 nM
2 | N=C(N)c1ccc(NC(=O)CCC(=O)N[C@@H](CC(=O)O)C(=O)N[C@@H](Cc2ccccc2)C(=O)O)cc1 [Example 2, N-[N-[4-[[4-(aminoiminomethyl)phenyl]amino]-1,4-dioxobutyl]-L-alpha-aspartyl]-L-phenylalanine] | – | 80 nM
3 | N=C(N)c1ccc(N(Cc2ccccc2)C(=O)CCC(=O)N[C@@H](CC(=O)O)C(=O)N[C@@H](Cc2ccccc2)C(=O)O)cc1 [Example 9] | – | 350 nM
